Test results taken from patent publication US7262185B2, “Benzazepine derivative, process for producing the same, and use” (Takeda Chemical Industries Ltd., priority 2001, dated 2007).

Structure (SMILES) | melting point [°C]
CCCCOCCOc1ccc(-c2ccc3c(c2)C=C(C(=O)Nc2ccc(C[S+]([O-])c4nncn4C)cc2)CCN3CC(C)C)cc1 (stereo not shown) [Compound 118, 7-[4-(2-butoxyethoxy)phenyl]-N-[4-(4-methyl-4H-1,2,4-triazol-3-ylsulfinylmethyl)phenyl]-1-isobutyl-2,3-dihydro-1H-1-benzazepine-4-carboxamide] | 87 to 89
CCCCOCCOc1ccc(-c2ccc3c(c2)C=C(C(=O)Nc2ccc([S+]([O-])Cc4nncn4CCC)nc2)CCN3CC(C)C)cc1 (stereo not shown) [Compound 54, 7-[4-(2-butoxyethoxy)phenyl]-1-isobutyl-N-[2-(4-propyl-4H-1,2,4-triazol-3-yl)methylsulfinylpyridin-5-yl]-2,3-dihydro-1H-1-benzazepine-4-carboxamide] | 135 to 138
CCCCOCCOc1ccc(-c2ccc3c(c2)C=C(C(=O)Nc2ccc([C@H](O)c4cccc[n+]4[O-])cc2)CCN3S(C)(=O)=O)cc1 [Compound 94, 7-[4-(2-butoxyethoxy)phenyl]-N-[4-[(S)-hydroxy(1-oxidopyridin-2-yl)methyl]phenyl]-1-methanesulfonyl-2,3-dihydro-1H-1-benzazepine-4-carboxamide] | 118 to 120
CCCCOCCOc1ccc(-c2ccc3c(c2)C=C(C(=O)Nc2ccc(SCc4nccn4CCCC(=O)OCC)cc2)CCN3CC(C)C)cc1 [Compound 413, ethyl 4-[2-[[[4-[[[7-[4-(2-butoxyethoxy)phenyl]-1-isobutyl-2,3-dihydro-1H-1-benzazepin-4-yl]carbonyl]amino]phenyl]thio]methyl]-1H-imidazol-1-yl]butanoate] | 103 to 104
CCCCOCCOc1ccc(-c2ccc3c(c2)C=C(C(=O)Nc2ccc(N(C)Cc4nncn4CCC)cc2)CCN3CCC)cc1 [Compound 151, 7-[4-(2-butoxyethoxy)phenyl]-N-[4-[methyl(4-propyl-4H-1,2,4-triazol-3-ylmethyl)amino]phenyl]-1-propyl-2,3-dihydro-1H-benzazepine-4-carboxamide] | 131 to 133
CCCCOCCOc1ccc(-c2ccc3c(c2)C=C(C(=O)Nc2ccc(SCc4nncn4CC(C)C)cc2)CCN3CCC)cc1 [Compound 32, 7-[4-(2-butoxyethoxy)phenyl]-N-[4-[(4-isobutyl-4H-1,2,4-triazol-3-yl)methylthio]phenyl]-1-propyl-2,3-dihydro-1H-1-benzazepine-4-carboxamide] | 130 to 132
CCCCOCCOc1ccc(-c2ccc3c(c2)C=C(C(=O)Nc2ccc([S+]([O-])Cc4nncn4C)cc2)CCN3CCC)cc1 (stereo not shown) [Compound 133, 7-[4-(2-butoxyethoxy)phenyl]-N-[4-(4-methyl-4H-1,2,4-triazol-3-ylmethylsulfinyl)phenyl]-1-propyl-2,3-dihydro-1H-1-benzazepine-4-carboxamide] | 101 to 103
CCCCOCCOc1ccc(-c2ccc3c(c2)C=C(C(=O)Nc2ccc([C@H](O)c4cccc[n+]4[O-])cc2)CCN3C(=O)C(F)(F)F)cc1 [Compound 80, 7-[4-(2-butoxyethoxy)phenyl]-N-[4-[(S)-hydroxy(1-oxidopyridin-2-yl)methyl]phenyl]-2,3-dihydro-1-trifluoroacetyl-1H-1-benzazepine-4-carboxamide] | 107 to 110
CCCCOCCOc1ccc(-c2ccc3c(c2)C=C(C(=O)Nc2ccc(C(O)c4ccc(Cl)cn4)cc2)CCN3C(=O)C(F)(F)F)cc1 (stereo not shown) [Compound 107, 7-[4-(2-butoxyethoxy)phenyl]-N-[4-[hydroxy(5-chloropyridin-2-yl)methyl]phenyl]-1-trifluoroacetyl-2,3-dihydro-1H-1-benzazepine-4-carboxamide] | 144 to 146
CCCCOCCOc1ccc(-c2ccc3c(c2)C=C(C(=O)Nc2ccc([C@H](O)c4ccccn4)cc2)CCN3S(C)(=O)=O)cc1 [Compound 93, 7-[4-(2-butoxyethoxy)phenyl]-N-[4-[(S)-hydroxy(2-pyridyl)methyl]phenyl]-1-methanesulfonyl-2,3-dihydro-1H-1-benzazepine-4-carboxamide] | 158 to 160
